From ChEMBL document CHEMBL4052777, “Synthesis of novel hybrids of pyrazole and coumarin as dual inhibitors of COX-2 and 5-LOX” (Bioorg Med Chem Lett, 2017)

Tests used:
SMMC-7721 = experiment: Antiproliferative activity against human SMMC7721 cells after 48 hrs by MTT assay; type: functional, cell-based; settings: SMMC-7721, 48 h
HEK-293T = experiment: Antiproliferative activity against human 293T cells after 48 hrs by MTT assay; type: cell-based
HT-29 = experiment: cells; settings: Homo sapiens, HT-29, 48 h
Description: Antiproliferative activity against human HT-29 cells after 48 hrs by MTT assay

HeLa = experiment: cells; settings: Homo sapiens, 48 h
A549 = experiment: cells; settings: Homo sapiens, A549, 48 h

Row | IC50 (SMMC-7721) [µM] | IC50 (HT-29) [µM] | IC50 (HeLa) [µM] | IC50 (A549) [µM] | SMILES | IC50 (HEK-293T) [µM]
1 | 19.9 | 22.7 | 42.4 | 21.1 | O=c1ccc2ccc(O)cc2o1 [UMBELLIFERONE] | 190
2 | 5.96 | 8.47 | 11.1 | 7.68 | Cc1ccc(-c2cc(C(F)(F)F)nn2-c2ccc(S(N)(=O)=O)cc2)cc1 [CELECOXIB] | 112
